Assay results: US20210025110A1, “ORGANIC ANTIMICROBIAL TEXTILE” (Livinguard AG, priority 2018, published 2021)

Experiments:
S. aureus ATCC 6538 = assay: AATCC 100-2012 antimicrobial performance of treated textile, S. aureus; format: cell-based, Staphylococcus aureus
Procedure: (§1) Antimicrobial performance of antimicrobial textiles according to the invention were performed following the AATCC 100-2012 test method. The AATCC 100-2012 test procedure for antimicrobial performance is described in detail in AATCC Technical Manual 2013, p. 166-168. Briefly, 3 circular swatches of 48 mm diameter were prepared from autoclaved (121° C., 15 min) textile samples, and a defined number of swatches was added to a 250 ml Erlenmeyer flask. 1 ml of prepared inoculum (in phosphate buffered water) was spot onto the swatches. […] The 0 minute contact time was immediately analyzed after inoculation. For the other contact times, the Erlenmeyer flask was sealed immediately after inoculation and incubated at 37° C. for the respective contact times. After the defined contact time, 100 ml of Dey-Engley Neutralizing broth was added to each flask, and the flask was shaken for one minute by hand. A dilution series was prepared and each dilution sample was plated on a nutrient agar. Agar plates were incubated at 37° C. for 24 and 48 hours. The Log Reduction (R) of bacteria was calculated by: B[log(number bacteria recovered from the inoculated treated test specimen swatches in the jar immediately after inoculation, i.e. at 0 contact time)]−A[log(number of bacteria recovered from the inoculated treated test specimen swatches in the jar incubated over the desired contact period)].

P. aeruginosa ATCC 9027 = assay: AATCC 100-2012 antimicrobial performance of treated textile, P. aeruginosa; format: cell-based
Procedure: as §1

E. coli = assay: AATCC 100-2012 antimicrobial performance of treated textile, E. coli; format: cell-based

| Compound | Log Reduction (R) after 1 hour, S. aureus (S. aureus ATCC 6538; Table 1, 100% viscose, L-arginine, 10 washes, 1 hour contact) | reduction of S. aureus after 1 hour (S. aureus ATCC 6538; Table 1 textiles, L-arginine on viscose, 1 hour) | Log Reduction (R) after 10 min, P. aeruginosa (P. aeruginosa ATCC 9027; Table 1, 100% viscose, L-arginine, 10 washes, 10 min contact) | reduction of P. aeruginosa after 10 minutes (P. aeruginosa ATCC 9027; Table 1 textiles, L-arginine on viscose, 10 min) | reduction of E. coli after 24 hours (E. coli; Table 10, L-arginine 12% on cotton) | Log Reduction (R) after 24 hours against E. coli, wash cycle 0 (unwashed) (E. coli; Table 10, 100% cotton, L-arginine 120 gpl, liquor pH per sample ID, unwashed, 24 hours) | Log Reduction (R) after 30 min, P. aeruginosa (P. aeruginosa ATCC 9027; Table 2, 100% viscose, L-carnitine, 0 or 10 washes per sample ID, 30 min contact) | reduction of P. aeruginosa after 30 minutes (P. aeruginosa ATCC 9027; Table 2 textiles, L-carnitine on viscose, 30 min) |
| --- | --- | --- | --- | --- | --- | --- | --- | --- |
| N=C(N)NCCC[C@H](N)C(=O)O [L-arginine] | about 1 Log cfu/ml | about 90% | 2.76 Log cfu/ml | > 99% | > 99.99% | > 4.41 Log cfu/ml |  |  |
| C[N+](C)(C)C[C@H](O)CC(=O)O [L-carnitine] |  |  |  |  |  |  | 2.82 Log cfu/ml | > 99% |
